Measured values from patent US20220370406A1, “METHOD OF TREATING STIMULANT USE DISORDER USING A COMBINATION OF TOPIRAMATE AND PHENTERMINE” (University of Kentucky Research Foundation, priority 2019, published 2022).

How the values were obtained:
[1] = tested on: participants with cocaine use disorder; experiment: Medical safety session: cardiovascular measures after intranasal cocaine; format: in vivo, human
Procedure: Participants completed one, single-blind medical safety session to ensure they could tolerate intranasal cocaine. Intranasal cocaine doses (i.e., 0 [placebo], 10, 20, 40 and 80 mg) were administered in ascending order. Placebo (i.e., 0 mg) was administered at 0900 hours. The subjective-effect questionnaires and cardiovascular measures described below were completed 30 minutes before placebo administration (i.e., 0830 hours), immediately following and at 15-minute intervals for 45 minutes. Subsequent cocaine administrations were separated by 45 minutes.

[2] = tested on: participants with cocaine use disorder; experiment: Experimental sessions: cardiovascular measures after cocaine sampling dose during maintenance; details: cocaine 80 mg during topiramate (50 or 100 mg/day)+phentermine (0 mg/day) relative to cocaine 0 mg during 0+0 mg/day
[3] = Cocaine 10 mg, Topiramate (0 mg/day) group
[4] = Cocaine 10 mg, Topiramate (50 mg/day) group
[5] = Cocaine 10 mg, Topiramate (100 mg/day) group
[6] = Cocaine 20 mg, Topiramate (0 mg/day) group
[7] = Cocaine 20 mg, Topiramate (50 mg/day) group
[8] = Cocaine 20 mg, Topiramate (100 mg/day) group
[9] = Cocaine 40 mg, Topiramate (0 mg/day) group
[10] = Cocaine 40 mg, Topiramate (50 mg/day) group
[11] = Cocaine 40 mg, Topiramate (100 mg/day) group
[12] = Cocaine 80 mg, Topiramate (0 mg/day) group
[13] = Cocaine 80 mg, Topiramate (50 mg/day) group
[14] = Cocaine 80 mg, Topiramate (100 mg/day) group

COC(=O)[C@H]1[C@@H](OC(=O)c2ccccc2)C[C@@H]2CC[C@H]1N2C [Cocaine, cocaine]
Vitals Diastolic Pressure, mean peak effect [1, 3]: 77.2
Vitals Heart Rate, mean peak effect [1, 3]: 70.9
Vitals Systolic Pressure, mean peak effect [1, 3]: 121.1
Vitals Diastolic Pressure, mean peak effect [1, 4]: 84.8
Vitals Heart Rate, mean peak effect [1, 4]: 67.4
Vitals Systolic Pressure, mean peak effect [1, 4]: 123.9
Vitals Diastolic Pressure, mean peak effect [1, 5]: 82.6
Vitals Heart Rate, mean peak effect [1, 5]: 66.7
Vitals Systolic Pressure, mean peak effect [1, 5]: 125.1
Vitals Diastolic Pressure, mean peak effect [1, 6]: 81.5
Vitals Heart Rate, mean peak effect [1, 6]: 77.9
Vitals Systolic Pressure, mean peak effect [1, 6]: 125.3
Vitals Diastolic Pressure, mean peak effect [1, 7]: 84.1
Vitals Heart Rate, mean peak effect [1, 7]: 66.6
Vitals Systolic Pressure, mean peak effect [1, 7]: 131.8
Vitals Diastolic Pressure, mean peak effect [1, 8]: 82.3
Vitals Heart Rate, mean peak effect [1, 8]: 64.6
Vitals Systolic Pressure, mean peak effect [1, 8]: 128.3
Vitals Diastolic Pressure, mean peak effect [1, 9]: 81.6
Vitals Heart Rate, mean peak effect [1, 9]: 74.8
Vitals Systolic Pressure, mean peak effect [1, 9]: 124.9
Vitals Diastolic Pressure, mean peak effect [1, 10]: 82.4
Vitals Heart Rate, mean peak effect [1, 10]: 70.8
Vitals Systolic Pressure, mean peak effect [1, 10]: 129.9
Vitals Diastolic Pressure, mean peak effect [1, 11]: 86.5
Vitals Heart Rate, mean peak effect [1, 11]: 67.8
Vitals Systolic Pressure, mean peak effect [1, 11]: 131.7
Vitals Diastolic Pressure, mean peak effect [1, 12]: 85.9
Vitals Heart Rate, mean peak effect [1, 12]: 85.8
Vitals Systolic Pressure, mean peak effect [1, 12]: 130.5
Vitals Diastolic Pressure, mean peak effect [1, 13]: 84.8
Vitals Heart Rate, mean peak effect [1, 13]: 78.0
Vitals Systolic Pressure, mean peak effect [1, 13]: 133.8
Vitals Diastolic Pressure, mean peak effect [1, 14]: 88.3
Vitals Heart Rate, mean peak effect [1, 14]: 77.6
Vitals Systolic Pressure, mean peak effect [1, 14]: 137.4
heart rate or blood pressure ([1]; cocaine 20, 40 or 80 mg above placebo levels in at least one of the topiramate groups, medical safety session): significantly increased
heart rate [2]: significantly increased
